Experiments:
[1] = Stability of cannabinoid entourage and Vitamin E components of the powder concentrate by LCMSMS; type: physicochemical; conditions: powder stored at 21-25° C.
Protocol: At each time period, 0.05 g of powder was dissolved in 10 ml-15 of ethanol, diluted to fall within the analytical range, and injected into the LCMSMS for analysis.

[2] = Stability of cannabinoid compounds and Vitamin E components in Beverage 1 (AB White) by LCMSMS; type: physicochemical; conditions: for Stability of Plant-Derived Cannabinoid Compounds in AB White, 8° C.: AB White stored at 8° C.; for Stability of Plant-Derived Cannabinoid Compounds in AB White, 21-25° C.: AB White stored at 21-25° C.

## CCCCCc1cc(O)c2c(c1)OC(C)(C)c1ccc(C)cc1-2 [CBN, cannabinol]
[1]; 0 days
  Stability of Plant-Derived Cannabinoid Compounds in Powder Concentrate: 0.480 mg/g powder
[1]; 1 days
  Stability of Plant-Derived Cannabinoid Compounds in Powder Concentrate: 0.471 mg/g powder
[1]; 2 days
  Stability of Plant-Derived Cannabinoid Compounds in Powder Concentrate: 0.488 mg/g powder
[1]; 3 days
  Stability of Plant-Derived Cannabinoid Compounds in Powder Concentrate: 0.474 mg/g powder
[1]; 5 days
  Stability of Plant-Derived Cannabinoid Compounds in Powder Concentrate: 0.491 mg/g powder
[1]; 8 days
  Stability of Plant-Derived Cannabinoid Compounds in Powder Concentrate: 0.469 mg/g powder
[1]; 9 days
  Stability of Plant-Derived Cannabinoid Compounds in Powder Concentrate: 0.466 mg/g powder
[1]; 10 days
  Stability of Plant-Derived Cannabinoid Compounds in Powder Concentrate: 0.499 mg/g powder
[1]; 11 days
  Stability of Plant-Derived Cannabinoid Compounds in Powder Concentrate: 0.494 mg/g powder
[1]; 12 days
  Stability of Plant-Derived Cannabinoid Compounds in Powder Concentrate: 0.496 mg/g powder
[1]; 15 days
  Stability of Plant-Derived Cannabinoid Compounds in Powder Concentrate: 0.472 mg/g powder
[1]; 16 days
  Stability of Plant-Derived Cannabinoid Compounds in Powder Concentrate: 0.483 mg/g powder
[1]; 17 days
  Stability of Plant-Derived Cannabinoid Compounds in Powder Concentrate: 0.465 mg/g powder
[1]; 18 days
  Stability of Plant-Derived Cannabinoid Compounds in Powder Concentrate: 0.470 mg/g powder
[1]; 19 days
  Stability of Plant-Derived Cannabinoid Compounds in Powder Concentrate: 0.490 mg/g powder
[1]; 22 days
  Stability of Plant-Derived Cannabinoid Compounds in Powder Concentrate: 0.486 mg/g powder
[1]; 23 days
  Stability of Plant-Derived Cannabinoid Compounds in Powder Concentrate: 0.469 mg/g powder
[1]; 24 days
  Stability of Plant-Derived Cannabinoid Compounds in Powder Concentrate: 0.465 mg/g powder
[1]; 25 days
  Stability of Plant-Derived Cannabinoid Compounds in Powder Concentrate: 0.486 mg/g powder
[1]; 26 days
  Stability of Plant-Derived Cannabinoid Compounds in Powder Concentrate: 0.486 mg/g powder
[1]; 29 days
  Stability of Plant-Derived Cannabinoid Compounds in Powder Concentrate: 0.484 mg/g powder
[1]; 30 days
  Stability of Plant-Derived Cannabinoid Compounds in Powder Concentrate: 0.476 mg/g powder
[1]; 60 days
  Stability of Plant-Derived Cannabinoid Compounds in Powder Concentrate: 0.489 mg/g powder
[1]; 90 days
  Stability of Plant-Derived Cannabinoid Compounds in Powder Concentrate: 0.483 mg/g powder
[1]; 120 days
  Stability of Plant-Derived Cannabinoid Compounds in Powder Concentrate: 0.498 mg/g powder
[1]; 150 days
  Stability of Plant-Derived Cannabinoid Compounds in Powder Concentrate: 0.500 mg/g powder
[1]; 180 days
  Stability of Plant-Derived Cannabinoid Compounds in Powder Concentrate: 0.464 mg/g powder
[1]; 210 days
  Stability of Plant-Derived Cannabinoid Compounds in Powder Concentrate: 0.501 mg/g powder
[1]; 240 days
  Stability of Plant-Derived Cannabinoid Compounds in Powder Concentrate: 0.467 mg/g powder
[1]; 270 days
  Stability of Plant-Derived Cannabinoid Compounds in Powder Concentrate: 0.464 mg/g powder
[1]; 300 days
  Stability of Plant-Derived Cannabinoid Compounds in Powder Concentrate: 0.469 mg/g powder
[1]; 330 days
  Stability of Plant-Derived Cannabinoid Compounds in Powder Concentrate: 0.502 mg/g powder
[1]; 360 days
  Stability of Plant-Derived Cannabinoid Compounds in Powder Concentrate: 0.499 mg/g powder
[1]; 390 days
  Stability of Plant-Derived Cannabinoid Compounds in Powder Concentrate: 0.479 mg/g powder
[1]; 420 days
  Stability of Plant-Derived Cannabinoid Compounds in Powder Concentrate: 0.481 mg/g powder
[1]; 450 days
  Stability of Plant-Derived Cannabinoid Compounds in Powder Concentrate: 0.480 mg/g powder
[1]; 480 days
  Stability of Plant-Derived Cannabinoid Compounds in Powder Concentrate: 0.485 mg/g powder
[1]; 510 days
  Stability of Plant-Derived Cannabinoid Compounds in Powder Concentrate: 0.499 mg/g powder
[1]; 540 days
  Stability of Plant-Derived Cannabinoid Compounds in Powder Concentrate: 0.492 mg/g powder
[1]; 570 days
  Stability of Plant-Derived Cannabinoid Compounds in Powder Concentrate: 0.471 mg/g powder
[2]; 0 days
  Stability of Plant-Derived Cannabinoid Compounds in AB White, 8° C.: 2.79 µg/mL
  Stability of Plant-Derived Cannabinoid Compounds in AB White, 21-25° C.: 2.79 µg/mL
[2]; 1 days
  Stability of Plant-Derived Cannabinoid Compounds in AB White, 8° C.: 2.77 µg/mL
  Stability of Plant-Derived Cannabinoid Compounds in AB White, 21-25° C.: 2.79 µg/mL
[2]; 2 days
  Stability of Plant-Derived Cannabinoid Compounds in AB White, 8° C.: 2.72 µg/mL
  Stability of Plant-Derived Cannabinoid Compounds in AB White, 21-25° C.: 2.81 µg/mL
[2]; 3 days
  Stability of Plant-Derived Cannabinoid Compounds in AB White, 8° C.: 2.73 µg/mL
  Stability of Plant-Derived Cannabinoid Compounds in AB White, 21-25° C.: 2.73 µg/mL
[2]; 5 days
  Stability of Plant-Derived Cannabinoid Compounds in AB White, 8° C.: 2.76 µg/mL
  Stability of Plant-Derived Cannabinoid Compounds in AB White, 21-25° C.: 2.80 µg/mL
[2]; 8 days
  Stability of Plant-Derived Cannabinoid Compounds in AB White, 8° C.: 2.75 µg/mL
  Stability of Plant-Derived Cannabinoid Compounds in AB White, 21-25° C.: 2.71 µg/mL
[2]; 9 days
  Stability of Plant-Derived Cannabinoid Compounds in AB White, 8° C.: 2.76 µg/mL
  Stability of Plant-Derived Cannabinoid Compounds in AB White, 21-25° C.: 2.78 µg/mL
[2]; 10 days
  Stability of Plant-Derived Cannabinoid Compounds in AB White, 8° C.: 2.79 µg/mL
  Stability of Plant-Derived Cannabinoid Compounds in AB White, 21-25° C.: 2.77 µg/mL
[2]; 11 days
  Stability of Plant-Derived Cannabinoid Compounds in AB White, 8° C.: 2.71 µg/mL
  Stability of Plant-Derived Cannabinoid Compounds in AB White, 21-25° C.: 2.80 µg/mL
[2]; 12 days
  Stability of Plant-Derived Cannabinoid Compounds in AB White, 8° C.: 2.80 µg/mL
  Stability of Plant-Derived Cannabinoid Compounds in AB White, 21-25° C.: 2.75 µg/mL
[2]; 15 days
  Stability of Plant-Derived Cannabinoid Compounds in AB White, 8° C.: 2.79 µg/mL
  Stability of Plant-Derived Cannabinoid Compounds in AB White, 21-25° C.: 2.81 µg/mL
[2]; 16 days
  Stability of Plant-Derived Cannabinoid Compounds in AB White, 8° C.: 2.77 µg/mL
  Stability of Plant-Derived Cannabinoid Compounds in AB White, 21-25° C.: 2.75 µg/mL
[2]; 17 days
  Stability of Plant-Derived Cannabinoid Compounds in AB White, 8° C.: 2.82 µg/mL
  Stability of Plant-Derived Cannabinoid Compounds in AB White, 21-25° C.: 2.70 µg/mL
[2]; 18 days
  Stability of Plant-Derived Cannabinoid Compounds in AB White, 8° C.: 2.71 µg/mL
  Stability of Plant-Derived Cannabinoid Compounds in AB White, 21-25° C.: 2.78 µg/mL
[2]; 19 days
  Stability of Plant-Derived Cannabinoid Compounds in AB White, 8° C.: 2.71 µg/mL
  Stability of Plant-Derived Cannabinoid Compounds in AB White, 21-25° C.: 2.73 µg/mL
[2]; 22 days
  Stability of Plant-Derived Cannabinoid Compounds in AB White, 8° C.: 2.76 µg/mL
  Stability of Plant-Derived Cannabinoid Compounds in AB White, 21-25° C.: 2.69 µg/mL
[2]; 23 days
  Stability of Plant-Derived Cannabinoid Compounds in AB White, 8° C.: 2.71 µg/mL
  Stability of Plant-Derived Cannabinoid Compounds in AB White, 21-25° C.: 2.68 µg/mL
[2]; 24 days
  Stability of Plant-Derived Cannabinoid Compounds in AB White, 8° C.: 2.75 µg/mL
  Stability of Plant-Derived Cannabinoid Compounds in AB White, 21-25° C.: 2.79 µg/mL
[2]; 25 days
  Stability of Plant-Derived Cannabinoid Compounds in AB White, 8° C.: 2.75 µg/mL
  Stability of Plant-Derived Cannabinoid Compounds in AB White, 21-25° C.: 2.75 µg/mL
[2]; 26 days
  Stability of Plant-Derived Cannabinoid Compounds in AB White, 8° C.: 2.76 µg/mL
  Stability of Plant-Derived Cannabinoid Compounds in AB White, 21-25° C.: 2.69 µg/mL
[2]; 29 days
  Stability of Plant-Derived Cannabinoid Compounds in AB White, 8° C.: 2.76 µg/mL
  Stability of Plant-Derived Cannabinoid Compounds in AB White, 21-25° C.: 2.75 µg/mL
[2]; 30 days
  Stability of Plant-Derived Cannabinoid Compounds in AB White, 8° C.: 2.78 µg/mL
  Stability of Plant-Derived Cannabinoid Compounds in AB White, 21-25° C.: 2.72 µg/mL
[2]; 60 days
  Stability of Plant-Derived Cannabinoid Compounds in AB White, 8° C.: 2.68 µg/mL
  Stability of Plant-Derived Cannabinoid Compounds in AB White, 21-25° C.: 2.63 µg/mL
[2]; 90 days
  Stability of Plant-Derived Cannabinoid Compounds in AB White, 8° C.: 2.74 µg/mL
  Stability of Plant-Derived Cannabinoid Compounds in AB White, 21-25° C.: 2.66 µg/mL
[2]; 120 days
  Stability of Plant-Derived Cannabinoid Compounds in AB White, 8° C.: 2.72 µg/mL
  Stability of Plant-Derived Cannabinoid Compounds in AB White, 21-25° C.: 2.67 µg/mL
[2]; 150 days
  Stability of Plant-Derived Cannabinoid Compounds in AB White, 8° C.: 2.69 µg/mL
  Stability of Plant-Derived Cannabinoid Compounds in AB White, 21-25° C.: 2.77 µg/mL
[2]; 180 days
  Stability of Plant-Derived Cannabinoid Compounds in AB White, 8° C.: 2.77 µg/mL
  Stability of Plant-Derived Cannabinoid Compounds in AB White, 21-25° C.: 2.68 µg/mL
[2]; 210 days
  Stability of Plant-Derived Cannabinoid Compounds in AB White, 8° C.: 2.75 µg/mL
  Stability of Plant-Derived Cannabinoid Compounds in AB White, 21-25° C.: 2.74 µg/mL
[2]; 240 days
  Stability of Plant-Derived Cannabinoid Compounds in AB White, 8° C.: 2.70 µg/mL
  Stability of Plant-Derived Cannabinoid Compounds in AB White, 21-25° C.: 2.71 µg/mL
[2]; 270 days
  Stability of Plant-Derived Cannabinoid Compounds in AB White, 8° C.: 2.75 µg/mL
  Stability of Plant-Derived Cannabinoid Compounds in AB White, 21-25° C.: 2.67 µg/mL
[2]; 300 days
  Stability of Plant-Derived Cannabinoid Compounds in AB White, 8° C.: 2.71 µg/mL
  Stability of Plant-Derived Cannabinoid Compounds in AB White, 21-25° C.: 2.73 µg/mL
[2]; 330 days
  Stability of Plant-Derived Cannabinoid Compounds in AB White, 8° C.: 2.75 µg/mL
  Stability of Plant-Derived Cannabinoid Compounds in AB White, 21-25° C.: 2.75 µg/mL
[2]; 360 days
  Stability of Plant-Derived Cannabinoid Compounds in AB White, 8° C.: 2.68 µg/mL
  Stability of Plant-Derived Cannabinoid Compounds in AB White, 21-25° C.: 2.67 µg/mL
[2]; 390 days
  Stability of Plant-Derived Cannabinoid Compounds in AB White, 8° C.: 2.67 µg/mL
  Stability of Plant-Derived Cannabinoid Compounds in AB White, 21-25° C.: 2.66 µg/mL
[2]; 420 days
  Stability of Plant-Derived Cannabinoid Compounds in AB White, 8° C.: 2.70 µg/mL
  Stability of Plant-Derived Cannabinoid Compounds in AB White, 21-25° C.: 2.62 µg/mL
[2]; 450 days
  Stability of Plant-Derived Cannabinoid Compounds in AB White, 8° C.: 2.70 µg/mL
  Stability of Plant-Derived Cannabinoid Compounds in AB White, 21-25° C.: 2.61 µg/mL
[2]; 480 days
  Stability of Plant-Derived Cannabinoid Compounds in AB White, 8° C.: 2.66 µg/mL
  Stability of Plant-Derived Cannabinoid Compounds in AB White, 21-25° C.: 2.57 µg/mL
[2]; 510 days
  Stability of Plant-Derived Cannabinoid Compounds in AB White, 8° C.: 2.60 µg/mL
  Stability of Plant-Derived Cannabinoid Compounds in AB White, 21-25° C.: 2.66 µg/mL
[2]; 540 days
  Stability of Plant-Derived Cannabinoid Compounds in AB White, 8° C.: 2.56 µg/mL
  Stability of Plant-Derived Cannabinoid Compounds in AB White, 21-25° C.: 2.63 µg/mL
[2]; 570 days
  Stability of Plant-Derived Cannabinoid Compounds in AB White, 8° C.: 2.56 µg/mL
  Stability of Plant-Derived Cannabinoid Compounds in AB White, 21-25° C.: 2.56 µg/mL
